Test results from the supplement of paper PMC10307832.

How the values were obtained:
Assay in all cases: relative viability (nuclei count vs DMSO), 5 days (fraction); higher = more cells survive
NCI-H1793 = conditions: first compound 500 µM
Summary of the method: (§1)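 Nuclei were stained with Hoechst during a one-step fixation (final 0.05% Triton X-100, 1% formaldehyde, 1 ug/ml Hoechst) carried out 5 days after dosing, then counted on 4× images. The cells, lung cancer lines in 1536-well plates, had been dosed by pin tool the day after seeding with one drug alone or a fixed anchor-drug dose plus five library-drug doses (not always all listed) in √10 steps. Relative viability is the nuclei count in treated wells divided by that in vehicle wells, and each value is the median of duplicate plates.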

LOU-NH91 = system: LOU-NH91
Summary of the method: as §1

NCI-H2023 = system: NCI-H2023
Summary of the method: as §1

NCI-H1437 = system: NCI-H1437
Summary of the method: as §1

EMC-BAC-2 = system: EMC-BAC-2
Summary of the method: as §1

201T = system: 201T
Summary of the method: as §1

UMC-11 = system: UMC-11
Summary of the method: as §1

NCI-H1651 = system: NCI-H1651
Summary of the method: as §1

NCI-H23 = system: NCI-H23
Summary of the method: as §1

NCI-H1734 = system: NCI-H1734
Summary of the method: as §1

HCC-78 = system: HCC-78
Summary of the method: as §1

NCI-H1975 = system: NCI-H1975
Summary of the method: as §1

O=C(O)CCCCC(CCSCc1ccccc1)SCc1ccccc1 (stereo not given) [CPI-613] + O=C(CCCCCCC(=O)Nc1ccccc1)NO [Vorinostat] (partner 1 µM)
relative viability (NCI-H1793): 0.0086
relative viability (LOU-NH91; first compound 5 µM): 0.891
relative viability (LOU-NH91; first compound 15.81 µM): 0.844
relative viability (LOU-NH91; first compound 50 µM): 0.871
relative viability (LOU-NH91; first compound 158.11 µM): 0.837
relative viability (LOU-NH91; first compound 500 µM): 0.622
relative viability (NCI-H2023; first compound 5 µM): 0.537
relative viability (NCI-H2023; first compound 15.81 µM): 0.475
relative viability (NCI-H2023; first compound 50 µM): 0.572
relative viability (NCI-H2023; first compound 158.11 µM): 0.0274
relative viability (NCI-H2023; first compound 500 µM): 0.007
relative viability (NCI-H1437; first compound 5 µM): 0.803
relative viability (NCI-H1437; first compound 15.81 µM): 0.637
relative viability (NCI-H1437; first compound 50 µM): 0.689
relative viability (NCI-H1437; first compound 158.11 µM): 0.093
relative viability (NCI-H1437; first compound 500 µM): 0.0541
relative viability (EMC-BAC-2; first compound 5 µM): 0.499
relative viability (EMC-BAC-2; first compound 15.81 µM): 0.339
relative viability (EMC-BAC-2; first compound 50 µM): 0.469
relative viability (EMC-BAC-2; first compound 158.11 µM): 0.356
relative viability (EMC-BAC-2; first compound 500 µM): 0.0895
relative viability (201T; first compound 5 µM): 0.961
relative viability (201T; first compound 15.81 µM): 0.865
relative viability (201T; first compound 50 µM): 0.958
relative viability (201T; first compound 158.11 µM): 0.328
relative viability (201T; first compound 500 µM): 0.368
relative viability (UMC-11; first compound 5 µM): 0.355
relative viability (UMC-11; first compound 15.81 µM): 0.358
relative viability (UMC-11; first compound 50 µM): 0.39
relative viability (UMC-11; first compound 158.11 µM): 0.126
relative viability (UMC-11; first compound 500 µM): 0.1
relative viability (NCI-H1651; first compound 5 µM): 0.583
relative viability (NCI-H1651; first compound 15.81 µM): 0.528
relative viability (NCI-H1651; first compound 50 µM): 0.528
relative viability (NCI-H1651; first compound 158.11 µM): 0.438
relative viability (NCI-H1651; first compound 500 µM): 0.542
relative viability (NCI-H23; first compound 5 µM): 0.612
relative viability (NCI-H23; first compound 15.81 µM): 0.586
relative viability (NCI-H23; first compound 50 µM): 0.591
relative viability (NCI-H23; first compound 158.11 µM): 0.168
relative viability (NCI-H23; first compound 500 µM): 0.0015
relative viability (NCI-H1734; first compound 5 µM): 0.66
relative viability (NCI-H1734; first compound 15.81 µM): 0.768
relative viability (NCI-H1734; first compound 50 µM): 0.704
relative viability (NCI-H1734; first compound 158.11 µM): 0.147
relative viability (NCI-H1734; first compound 500 µM): 0.107
relative viability (HCC-78; first compound 15.81 µM): 0.373
relative viability (HCC-78; first compound 50 µM): 0.361
relative viability (HCC-78; first compound 158.11 µM): 0.393
relative viability (HCC-78; first compound 500 µM): 0.479
relative viability (NCI-H1975; first compound 5 µM): 0.73
relative viability (NCI-H1975; first compound 15.81 µM): 0.735
relative viability (NCI-H1975; first compound 50 µM): 0.692
relative viability (NCI-H1975; first compound 158.11 µM): 0.24
relative viability (NCI-H1975; first compound 500 µM): 0.0367
